# Patent US20240000872A1, “NOVEL BACTERIOPHAGE THAT LYSES ACINETOBACTER GENUS BACTERIA HAVING RESISTANCE TO ANTIBIOTICS” (priority 2020, published 2024)
# Tested on: Acinetobacter baumannii strains
# Assay: Antibiotic susceptibility test (CLSI disk diffusion test method, read per CLSI 2016); for antibiotic susceptibility S/I/R: key: ‘S’ means susceptible; ‘I’ means intermediate; ‘R’ means resistant; for susceptibility category (S/I/R): key: ‘S’ means susceptible; ‘I’ means intermediate; ‘R’ means resistant
# Format: cell-based
# Parameters: antibiotic susceptibility test value / susceptibility test value (number given before S/I/R) / antibiotic susceptibility value: unit not given here
substance,measurement,setting,value
colistin,antibiotic susceptibility value,host strain YMC16/01/R353,0.5
same,susceptibility category (S/I/R),host strain YMC16/01/R353,S
same,susceptibility test value (number given before S/I/R),host strain YMC16/01/R353,0.5
same,antibiotic susceptibility S/I/R,host strain YMC16/01/R380,S
same,antibiotic susceptibility value,host strain YMC16/01/R380,0.5
same,susceptibility category (S/I/R),host strain YMC16/01/R380,S
same,susceptibility test value (number given before S/I/R),host strain YMC16/01/R380,0.5
same,antibiotic susceptibility S/I/R,host strain YMC16/01/R397,S
same,antibiotic susceptibility value,host strain YMC16/01/R397,0.5
same,susceptibility category (S/I/R),host strain YMC16/01/R397,S
same,susceptibility test value (number given before S/I/R),host strain YMC16/01/R397,0.5
same,antibiotic susceptibility S/I/R,host strain YMC16/01/R405,S
same,antibiotic susceptibility value,host strain YMC16/01/R405,0.5
same,susceptibility category (S/I/R),host strain YMC16/01/R405,S
same,susceptibility test value (number given before S/I/R),host strain YMC16/01/R405,0.5
same,antibiotic susceptibility S/I/R,host strain YMC16/03/R4461,R
same,antibiotic susceptibility value,host strain YMC16/03/R4461,16
same,susceptibility category (S/I/R),host strain YMC16/03/R4461,R
same,susceptibility test value (number given before S/I/R),host strain YMC16/03/R4461,16
same,antibiotic susceptibility S/I/R,host strain YMC16/05/R2210,R
same,antibiotic susceptibility value,host strain YMC16/05/R2210,16
same,susceptibility category (S/I/R),host strain YMC16/05/R2210,R
same,susceptibility test value (number given before S/I/R),host strain YMC16/05/R2210,16
same,antibiotic susceptibility S/I/R,host strain YMC16/07/R2512,R
same,antibiotic susceptibility value,host strain YMC16/07/R2512,16
same,susceptibility category (S/I/R),host strain YMC16/07/R2512,R
same,susceptibility test value (number given before S/I/R),host strain YMC16/07/R2512,16
same,antibiotic susceptibility S/I/R,host strain YMC16/09/R2471,R
same,antibiotic susceptibility value,host strain YMC16/09/R2471,16
same,susceptibility category (S/I/R),host strain YMC16/09/R2471,R
same,susceptibility test value (number given before S/I/R),host strain YMC16/09/R2471,16
same,antibiotic susceptibility S/I/R,host strain YMC16/10/R2537,R
same,antibiotic susceptibility value,host strain YMC16/10/R2537,16
same,susceptibility category (S/I/R),host strain YMC16/10/R2537,R
same,susceptibility test value (number given before S/I/R),host strain YMC16/10/R2537,16
same,antibiotic susceptibility S/I/R,host strain YMC16/12/B11422,S
same,antibiotic susceptibility value,host strain YMC16/12/B11422,0.5
same,susceptibility category (S/I/R),host strain YMC16/12/B11422,S
same,susceptibility test value (number given before S/I/R),host strain YMC16/12/B11422,0.5
same,antibiotic susceptibility S/I/R,host strain YMC16/12/B11449,S
same,antibiotic susceptibility value,host strain YMC16/12/B11449,0.5
same,susceptibility category (S/I/R),host strain YMC16/12/B11449,S
same,susceptibility test value (number given before S/I/R),host strain YMC16/12/B11449,0.5
same,antibiotic susceptibility S/I/R,host strain YMC16/12/B13325,S
same,antibiotic susceptibility value,host strain YMC16/12/B13325,0.5
same,susceptibility category (S/I/R),host strain YMC16/12/B13325,S
same,susceptibility test value (number given before S/I/R),host strain YMC16/12/B13325,0.5
same,antibiotic susceptibility S/I/R,host strain YMC16/12/P503,R
same,antibiotic susceptibility value,host strain YMC16/12/P503,16
same,susceptibility category (S/I/R),host strain YMC16/12/P503,R
same,susceptibility test value (number given before S/I/R),host strain YMC16/12/P503,16
same,antibiotic susceptibility S/I/R,host strain YMC16/12/R4637,R
same,antibiotic susceptibility value,host strain YMC16/12/R4637,16
same,susceptibility category (S/I/R),host strain YMC16/12/R4637,R
same,susceptibility test value (number given before S/I/R),host strain YMC16/12/R4637,16
same,antibiotic susceptibility S/I/R,host strain YMC17/01/B8053,S
same,antibiotic susceptibility value,host strain YMC17/01/B8053,0.5
same,susceptibility category (S/I/R),host strain YMC17/01/B8053,S
same,susceptibility test value (number given before S/I/R),host strain YMC17/01/B8053,0.5
same,antibiotic susceptibility S/I/R,host strain YMC17/01/B10087,S
same,antibiotic susceptibility value,host strain YMC17/01/B10087,0.5
same,susceptibility category (S/I/R),host strain YMC17/01/B10087,S
same,susceptibility test value (number given before S/I/R),host strain YMC17/01/B10087,0.5
same,antibiotic susceptibility S/I/R,host strain YMC17/01/B12075,S
same,antibiotic susceptibility value,host strain YMC17/01/B12075,22
same,susceptibility category (S/I/R),host strain YMC17/01/B12075,S
same,susceptibility test value (number given before S/I/R),host strain YMC17/01/B12075,22
same,antibiotic susceptibility S/I/R,host strain YMC17/01/B13454,S
same,antibiotic susceptibility value,host strain YMC17/01/B13454,0.5
same,susceptibility category (S/I/R),host strain YMC17/01/B13454,S
same,susceptibility test value (number given before S/I/R),host strain YMC17/01/B13454,0.5
same,antibiotic susceptibility S/I/R,host strain YMC17/01/P518,S
same,antibiotic susceptibility value,host strain YMC17/01/P518,0.5
same,susceptibility category (S/I/R),host strain YMC17/01/P518,S
same,susceptibility test value (number given before S/I/R),host strain YMC17/01/P518,0.5
same,antibiotic susceptibility S/I/R,host strain YMC17/01/R2812,R
same,antibiotic susceptibility value,host strain YMC17/01/R2812,16
same,susceptibility category (S/I/R),host strain YMC17/01/R2812,R
same,susceptibility test value (number given before S/I/R),host strain YMC17/01/R2812,16
same,antibiotic susceptibility S/I/R,host strain YMC17/02/B14,S
same,antibiotic susceptibility value,host strain YMC17/02/B14,0.5
same,susceptibility category (S/I/R),host strain YMC17/02/B14,S
same,susceptibility test value (number given before S/I/R),host strain YMC17/02/B14,0.5
same,antibiotic susceptibility S/I/R,host strain YMC17/02/B87,S
same,antibiotic susceptibility value,host strain YMC17/02/B87,0.5
same,susceptibility category (S/I/R),host strain YMC17/02/B87,S
same,susceptibility test value (number given before S/I/R),host strain YMC17/02/B87,0.5
same,antibiotic susceptibility S/I/R,host strain YMC17/02/B721,S
same,antibiotic susceptibility value,host strain YMC17/02/B721,0.5
same,susceptibility category (S/I/R),host strain YMC17/02/B721,S
same,susceptibility test value (number given before S/I/R),host strain YMC17/02/B721,0.5
same,antibiotic susceptibility S/I/R,host strain YMC17/02/B4039,S
same,antibiotic susceptibility value,host strain YMC17/02/B4039,0.5
same,susceptibility category (S/I/R),host strain YMC17/02/B4039,S
same,susceptibility test value (number given before S/I/R),host strain YMC17/02/B4039,0.5
same,antibiotic susceptibility S/I/R,host strain YMC17/02/B4520,S
same,antibiotic susceptibility value,host strain YMC17/02/B4520,0.5
same,susceptibility category (S/I/R),host strain YMC17/02/B4520,S
same,susceptibility test value (number given before S/I/R),host strain YMC17/02/B4520,0.5
same,antibiotic susceptibility S/I/R,host strain YMC17/02/B4864,S
same,antibiotic susceptibility value,host strain YMC17/02/B4864,0.5
same,susceptibility category (S/I/R),host strain YMC17/02/B4864,S
same,susceptibility test value (number given before S/I/R),host strain YMC17/02/B4864,0.5
same,antibiotic susceptibility S/I/R,host strain YMC17/02/B8414,S
same,antibiotic susceptibility value,host strain YMC17/02/B8414,0.5
same,susceptibility category (S/I/R),host strain YMC17/02/B8414,S
same,susceptibility test value (number given before S/I/R),host strain YMC17/02/B8414,0.5
same,antibiotic susceptibility S/I/R,host strain YMC17/02/P523,S
same,antibiotic susceptibility value,host strain YMC17/02/P523,0.5
same,susceptibility category (S/I/R),host strain YMC17/02/P523,S
same,susceptibility test value (number given before S/I/R),host strain YMC17/02/P523,0.5
same,antibiotic susceptibility S/I/R,host strain YMC17/02/R541,R
same,antibiotic susceptibility value,host strain YMC17/02/R541,16
same,susceptibility category (S/I/R),host strain YMC17/02/R541,R
same,susceptibility test value (number given before S/I/R),host strain YMC17/02/R541,16
same,antibiotic susceptibility S/I/R,host strain YMC17/02/R2392,R
same,antibiotic susceptibility value,host strain YMC17/02/R2392,16
same,susceptibility category (S/I/R),host strain YMC17/02/R2392,R
same,susceptibility test value (number given before S/I/R),host strain YMC17/02/R2392,4
same,antibiotic susceptibility S/I/R,host strain YMC17/03/B4730,S
same,antibiotic susceptibility value,host strain YMC17/03/B4730,0.5
same,susceptibility category (S/I/R),host strain YMC17/03/B4730,S
same,susceptibility test value (number given before S/I/R),host strain YMC17/03/B4730,0.5
same,antibiotic susceptibility S/I/R,host strain YMC17/03/B5000,S
same,antibiotic susceptibility value,host strain YMC17/03/B5000,0.5
same,susceptibility category (S/I/R),host strain YMC17/03/B5000,S
same,susceptibility test value (number given before S/I/R),host strain YMC17/03/B5000,0.5
same,antibiotic susceptibility S/I/R,host strain YMC17/03/P971,R
same,antibiotic susceptibility value,host strain YMC17/03/P971,16
same,susceptibility category (S/I/R),host strain YMC17/03/P971,R
same,susceptibility test value (number given before S/I/R),host strain YMC17/03/P971,16
same,antibiotic susceptibility S/I/R,host strain YMC17/03/R348,R
same,antibiotic susceptibility value,host strain YMC17/03/R348,16
same,susceptibility category (S/I/R),host strain YMC17/03/R348,R
same,susceptibility test value (number given before S/I/R),host strain YMC17/03/R348,4
same,antibiotic susceptibility S/I/R,host strain YMC17/03/R585,R
same,antibiotic susceptibility value,host strain YMC17/03/R585,16
same,susceptibility category (S/I/R),host strain YMC17/03/R585,R
same,susceptibility test value (number given before S/I/R),host strain YMC17/03/R585,16
same,antibiotic susceptibility S/I/R,host strain YMC17/03/R1888,R
same,antibiotic susceptibility value,host strain YMC17/03/R1888,16
same,susceptibility category (S/I/R),host strain YMC17/03/R1888,R
same,susceptibility test value (number given before S/I/R),host strain YMC17/03/R1888,16
same,antibiotic susceptibility S/I/R,host strain YMC17/03/R3279,R
same,antibiotic susceptibility value,host strain YMC17/03/R3279,16
same,susceptibility category (S/I/R),host strain YMC17/03/R3279,R
same,susceptibility test value (number given before S/I/R),host strain YMC17/03/R3279,16
same,antibiotic susceptibility S/I/R,host strain YMC17/03/R4077,S
same,antibiotic susceptibility value,host strain YMC17/03/R4077,0.5
same,susceptibility category (S/I/R),host strain YMC17/03/R4077,S
same,susceptibility test value (number given before S/I/R),host strain YMC17/03/R4077,0.5
same,antibiotic susceptibility S/I/R,host strain YMC17/03/R4607,S
same,antibiotic susceptibility value,host strain YMC17/03/R4607,0.5
same,susceptibility category (S/I/R),host strain YMC17/03/R4607,S
same,susceptibility test value (number given before S/I/R),host strain YMC17/03/R4607,0.5
same,antibiotic susceptibility S/I/R,host strain YMC17/04/R488,R
same,antibiotic susceptibility value,host strain YMC17/04/R488,8
same,susceptibility category (S/I/R),host strain YMC17/04/R488,R
same,susceptibility test value (number given before S/I/R),host strain YMC17/04/R488,8
same,antibiotic susceptibility S/I/R,host strain YMC17/04/R640,R
same,antibiotic susceptibility value,host strain YMC17/04/R640,8
same,susceptibility category (S/I/R),host strain YMC17/04/R640,R
same,susceptibility test value (number given before S/I/R),host strain YMC17/04/R640,8
same,antibiotic susceptibility S/I/R,host strain YMC/17/05/R1095,R
same,antibiotic susceptibility value,host strain YMC/17/05/R1095,16
same,susceptibility category (S/I/R),host strain YMC/17/05/R1095,R
same,susceptibility test value (number given before S/I/R),host strain YMC/17/05/R1095,16
